In publication PMC9127807, “Echinocandins Localized to the Target-Harboring Cell Surface Are Not Degraded but Those Entering the Vacuole Are” (ACS Chemical Biology, 2022):
Converted amounts (≈) assume the structure as drawn. Starred links: 1 amine or outer side, 2 acyl side, 3 side chain; linkers in the order of their positions; H or OH if unused. Positions of bridges follow the written chain, without caps; N, C: chain ends. Non-standard residues stand in square brackets, D forms with d. Residues, ends and D or L forms follow the SMILES beside them. *: point of attachment. X1 = O=C([C@@H](N[*:1])[C@H](O)[C@@H](O)c1ccc(OCc2cn(CCCNc3ccc([N+](=O)[O-])c4nonc34)nn2)cc1)[*:2]; Orn(4R-OH,5R-OCH2CH2NMe3+) = C[N+](C)(C)CCO[C@@H](N[*:3])[C@H](O)C[C@H](N[*:1])C(=O)[*:2]; pTerphenylCO(4''-OnC5H11) = CCCCCOc1ccc(-c2ccc(-c3ccc(C(=O)*)cc3)cc2)cc1; Pro(3S-OH,4S-Me) = C[C@H]1CN[C@H](C(=O)O)[C@H]1O; Hyp = O=C(O)[C@@H]1C[C@@H](O)CN1

Tests used:
[1] = system: C. albicans ATCC 10231; settings: strain D, echinocandin-susceptible; YPAD broth, 24 h, 30 °C, OD600 reduced by ≥75%
Experimental: (§1) Candida strains were streaked from glycerol stock onto YPAD agar plates and grown for 24 h at 30 °C. Colonies were suspended in 1 mL of PBS and diluted to an optical density of 2 × 10^–4 at 600 nm (OD600) in flat-bottom 96-well microplates (Corning) with YPAD broth containing dilutions of each tested compound at concentrations ranging from 64 to 0.008 μg/mL in twofold dilutions. Control wells with yeast cells but no drug and blank wells that contained only YPAD were prepared. MIC values (Table S2) were determined after 24 h at 30 °C by measuring the OD600 using a plate reader (Infinite M200 PRO, Tecan). MIC values were defined as the point at which the OD600 was reduced by ≥75% compared to the no-drug wells. Each concentration was tested in triplicate, and the results were confirmed by two independent sets of experiments.

[2] = system: C. albicans ATCC 24433; settings: strain C, echinocandin-susceptible; YPAD broth, 24 h, 30 °C, OD600 reduced by ≥75%
Experimental: as §1

[3] = system: C. albicans ATCC 90028; settings: strain E, echinocandin-susceptible; YPAD broth, 24 h, 30 °C, OD600 reduced by ≥75%
Experimental: as §1

[4] = system: C. albicans DPL1016 (DP-A15-10); settings: strain F, echinocandin resistant FKS mutation; YPAD broth, 24 h, 30 °C, OD600 reduced by ≥75%
Experimental: as §1

[5] = system: C. albicans SC5314; settings: strain A, echinocandin-susceptible; YPAD broth, 24 h, 30 °C, OD600 reduced by ≥75%; triplicate, two independent experiments
Experimental: as §1

[6] = system: C. albicans T-2068 (DP-C42); settings: strain G, echinocandin resistant FKS mutation; YPAD broth, 24 h, 30 °C, OD600 reduced by ≥75%
Experimental: as §1

[7] = system: C. glabrata ATCC 2001; settings: strain I, echinocandin-susceptible; YPAD broth, 24 h, 30 °C, OD600 reduced by ≥75%
Experimental: as §1

[8] = system: C. glabrata ATCC 66032; settings: strain J, echinocandin-susceptible; YPAD broth, 24 h, 30 °C, OD600 reduced by ≥75%
Experimental: as §1

[9] = system: C. glabrata ATCC 90030; settings: strain K, echinocandin-susceptible; YPAD broth, 24 h, 30 °C, OD600 reduced by ≥75%
Experimental: as §1

[10] = system: C. glabrata EF1620; settings: strain H, echinocandin-susceptible; YPAD broth, 24 h, 30 °C, OD600 reduced by ≥75%
Experimental: as §1

[11] = system: C. glabrata T-192 (1775); settings: strain L, echinocandin-susceptible; YPAD broth, 24 h, 30 °C, OD600 reduced by ≥75%
Experimental: as §1

[12] = system: C. glabrata TGL00275; settings: strain M, echinocandin resistant FKS mutation; YPAD broth, 24 h, 30 °C, OD600 reduced by ≥75%
Experimental: as §1

[13] = system: C. glabrata TGL00277; settings: strain N, echinocandin resistant FKS mutation; YPAD broth, 24 h, 30 °C, OD600 reduced by ≥75%
Experimental: as §1

[14] = system: C. albicans SN152; test: MIC broth double-dilution assay; assay type: cell-based, Candida albicans; settings: strain B, echinocandin-susceptible; YPAD broth, 24 h, 30 °C, OD600 reduced by ≥75%
Experimental: as §1, with “Colonies” for “Candida strains were streaked from glycerol stock onto YPAD agar plates and grown for 24 h at 30 °C. Colonies”

[15] = system: C. albicans SC5314 cells; settings: incubated with cells or lysates of C. albicans SC5314, 24 h, regardless of the media used (PBS, YPAD)
Experimental: C. albicans SC5314 cells were streaked from glycerol stocks onto YPAD agar plates and grown for 24 h at 30 °C. Colonies were grown in tubes in 3 mL of YPAD broth for 24 h at 30 °C with shaking. Cultures were diluted 1:50 and incubated in 5 mL of YPAD broth for 3 h at 30 °C with shaking until log-phase growth was observed. Cultures were then centrifuged (4000 rpm, 3 min), washed with PBS buffer, and resuspended in 1 mL of PBS buffer or YPAD. Cells were incubated with TMR-based probes (1 or 3) at a final concentration of 10 μM at 30 °C with shaking in the dark for 24 h. After washing three times with PBS, cells were resuspended in 75 μL of TNE buffer (10 mM Tris, 100 mM NaCl, and 1 mM ethylenediaminetetraacetic acid, pH 8.0) in a 1.5 mL Eppendorf tube, and 0.5 mm diameter beads were added to the yeast solution. The mixture was agitated on a vortex at maximum speed for 5 min. Next, 200 μL of 2% Triton X-100 in TNE buffer (v/v) was added to the agitated solution, and then the mixture was sonicated for 15 min. To clarify the yeast lysate, the mixture was centrifuged twice (16 000g, 20 min), and the supernatant was removed and filtered using a 0.22 μm syringe filter. The samples were analyzed using analytical reverse-phase HPLC at a 550 nm wavelength. HPLC conditions: mobile phase: acetonitrile in H2O (containing 0.1% trifluoroacetic acid (v/v)), gradient from 10 to 90%; flow rate: 1 mL/min; absorbance wavelength: 550 nm. Each sample was tested in two independent sets of experiments. The percentages of intact echinocandin were determined using the area calculation function available in the Hitachi Primaide Software and are presented as means (two replicates) ± standard deviation (SD).

Row | Compound | MIC [1] | MIC [2] | MIC [3] | MIC [4] | MIC [5] | MIC [6] | MIC [7] | MIC [8] | MIC [9] | MIC [10] | MIC [11] | MIC [12] | MIC [13] | MIC [14] | decomposition [15]
1 | CC[C@H](C)C[C@H](C)CCCCCCCCC(=O)N[C@H]1C[C@@H](O)[C@@H](NCCN)NC(=O)[C@@H]2[C@@H](O)CCN2C(=O)[C@H]([C@H](O)CCN)NC(=O)[C@H]([C@H](O)[C@@H](O)c2ccc(O)cc2)NC(=O)[C@@H]2C[C@@H](O)CN2C(=O)[C@H]([C@@H](C)O)NC1=O [CSF, caspofungin, reference compound] | 0.063 µg/mL (≈ 0.0576 µM) | 0.031 µg/mL (≈ 0.0284 µM) | 0.063 µg/mL (≈ 0.0576 µM) | 32 µg/mL (≈ 29.3 µM) | 0.031 µg/mL (≈ 0.0284 µM) | 16 µg/mL (≈ 14.6 µM) | 0.063 µg/mL (≈ 0.0576 µM) | 0.063 µg/mL (≈ 0.0576 µM) | 0.125 µg/mL (≈ 0.114 µM) | 0.031 µg/mL (≈ 0.0284 µM) | 0.016 µg/mL (≈ 0.0146 µM) | 16 µg/mL (≈ 14.6 µM) | > 64 µg/mL | 0.031 µg/mL (≈ 0.0284 µM) | 
2 | CCCCCOc1ccc(-c2ccc(-c3ccc(C(=O)N[C@H]4C[C@@H](O)[C@@H](OCCc5cn(CCCNC(=O)c6ccc(-c7c8ccc(=[N+](C)C)cc-8oc8cc(N(C)C)ccc78)c(C(=O)[O-])c6)nn5)NC(=O)[C@@H]5[C@@H](O)[C@@H](C)CN5C(=O)[C@H]([C@@H](C)O)NC(=O)[C@H]([C@H](O)[C@@H](O)c5ccc(O)cc5)NC(=O)[C@@H]5C[C@@H](O)CN5C(=O)[C@H]([C@@H](C)O)NC4=O)cc3)cc2)cc1 [Probe 3] |  |  |  |  |  |  |  |  |  |  |  |  |  |  | no significant decomposition
3 | CCCCCOc1ccc(-c2ccc(-c3ccc(C(=O)N[C@H]4C[C@@H](O)[C@@H](OCC[N+](C)(C)C)NC(=O)[C@@H]5[C@@H](O)[C@@H](C)CN5C(=O)[C@H]([C@@H](C)O)NC(=O)[C@H]([C@H](O)[C@@H](O)c5ccc(OCc6cn(CCCNc7ccc([N+](=O)[O-])c8nonc78)nn6)cc5)NC(=O)[C@@H]5C[C@@H](O)CN5C(=O)[C@H]([C@@H](C)O)NC4=O)cc3)cc2)cc1 [Probe 6] ({pTerphenylCO(4''-OnC5H11)}-[Orn(4R-OH,5R-OCH2CH2NMe3+)]T[Hyp][X1]T[Pro(3S-OH,4S-Me)]; lactam 1-C) | 0.5 µg/mL | 0.5 µg/mL | 0.5 µg/mL | > 64 µg/mL | 0.5 µg/mL | > 64 µg/mL | 1 µg/mL | 1 µg/mL | 1 µg/mL | 0.5 µg/mL | 0.5 µg/mL | > 64 µg/mL | > 64 µg/mL | 0.5 µg/mL | 
4 | CC[C@H](C)C[C@H](C)CCCCCCCCC(=O)N[C@H]1C[C@@H](O)[C@@H](NCCN)NC(=O)[C@@H]2[C@@H](O)CCN2C(=O)[C@H]([C@H](O)CCN)NC(=O)[C@H]([C@H](O)[C@@H](O)c2ccc(OCc3cn(CCCNc4ccc([N+](=O)[O-])c5nonc45)nn3)cc2)NC(=O)[C@@H]2C[C@@H](O)CN2C(=O)[C@H]([C@@H](C)O)NC1=O [Probe 2] | 2 µg/mL (≈ 1.43 µM) | 2 µg/mL (≈ 1.43 µM) | 2 µg/mL (≈ 1.43 µM) | > 64 µg/mL | 1 µg/mL (≈ 0.717 µM) | 64 µg/mL (≈ 45.9 µM) | 2 µg/mL (≈ 1.43 µM) | 4 µg/mL (≈ 2.87 µM) | 4 µg/mL (≈ 2.87 µM) | 4 µg/mL (≈ 2.87 µM) | 2 µg/mL (≈ 1.43 µM) | > 64 µg/mL | > 64 µg/mL | 1 µg/mL (≈ 0.717 µM) | 
